Source: patent US20190388425A1, “SUBSTITUTED IMIDAZOPYRIDINPYRIMIDINES” (Bayer Pharma Aktiengesellschaft, priority 2017, published 2019)

Target: T1, human full-length MKNK1 (Homo sapiens, UniProt Q9BUB5, T385D)
T1 construct: GST (N); purchased Carna Biosciences 02-145; host or cells: insect cells (baculovirus expression system)
Assay: MKNK1 kinase high ATP assay (TR-FRET)
Assay type: biochemical
Details: TR-FRET, 2 mM ATP (high ATP), 15 min preincubation with enzyme, 30 min reaction at 22° C.; read-out: MKNK1 IC50
Procedure: MKNK1 Kinase High ATP Assay
MKNK1-inhibitory activity at high ATP of compounds of the present invention after their preincubation with MKNK1 was quantified employing the TR-FRET-based MKNK1 high ATP assay as described in the following paragraphs.
As substrate for the kinase reaction the biotinylated peptide biotin-Ahx-[…] (C-terminus in amide form) was used, which can be purchased e.g. from the company Biosyntan (Berlin-Buch, Germany).
For the assay 50 nL of a 100 fold concentrated solution of the test compound in DMSO was pipetted into a black low volume 384 well microtiter plate (Greiner Bio-One, Frickenhausen, Germany), 2 μL of a solution of MKNK1 in aqueous assay buffer [50 mM HEPES pH 7.5, 5 mM MgCl2, 1.0 mM dithiothreitol, 0.005% (v/v) Nonidet-P40 (Sigma)] was added and the mixture was incubated for 15 min at 22° C. to allow pre-binding of the test compounds to the enzyme before the start of the kinase reaction. Then the kinase reaction was started by the addition of 3 μL of a solution of adenosine-tri-phosphate (ATP, 3.3 mM=>final conc. in the 5 μL assay volume is 2 mM) and substrate (0.1 μM=>final conc. in the 5 μL assay volume is 0.06 μM) in assay buffer and the resulting mixture was incubated for a reaction time of 30 min at 22° C. The concentration of MKNK1 was adjusted depending of the activity of the enzyme lot and was chosen appropriate to have the assay in the linear range, typical concentrations were in the range of 0.003 μg/mL. The reaction was stopped by the addition of 5 μL of a solution of TR-FRET detection reagents (5 nM streptavidine-XL665 [Cisbio Bioassays, Codolet, France] and 1 nM anti-ribosomal protein S6 (pSer236)-antibody from Invitrogen [#44921G] and 1 nM LANCE EU-W1024 labeled ProteinG [Perkin-Elmer, product no. AD0071]) in an aqueous EDTA-solution (100 mM EDTA, 0.1% (w/v) bovine serum albumin in 50 mM HEPES pH 7.5).
The resulting mixture was incubated for 1 h at 22° C. to allow the formation of complex between the phosphorylated biotinylated peptide and the detection reagents. Subsequently the amount of phosphorylated substrate was evaluated by measurement of the resonance energy transfer from the Eu-chelate to the streptavidine-XL. Therefore, the fluorescence emissions at 620 nm and 665 nm after excitation at 350 nm were measured in a TR-FRET reader, e.g. a Rubystar (BMG Labtechnologies, Offenburg, Germany) or a Viewlux (Perkin-Elmer). The ratio of the emissions at 665 nm and at 622 nm was taken as the measure for the amount of phosphorylated substrate.

T1 sequence (Q9BUB5 1-424 isoform Q9BUB5-2 T344D): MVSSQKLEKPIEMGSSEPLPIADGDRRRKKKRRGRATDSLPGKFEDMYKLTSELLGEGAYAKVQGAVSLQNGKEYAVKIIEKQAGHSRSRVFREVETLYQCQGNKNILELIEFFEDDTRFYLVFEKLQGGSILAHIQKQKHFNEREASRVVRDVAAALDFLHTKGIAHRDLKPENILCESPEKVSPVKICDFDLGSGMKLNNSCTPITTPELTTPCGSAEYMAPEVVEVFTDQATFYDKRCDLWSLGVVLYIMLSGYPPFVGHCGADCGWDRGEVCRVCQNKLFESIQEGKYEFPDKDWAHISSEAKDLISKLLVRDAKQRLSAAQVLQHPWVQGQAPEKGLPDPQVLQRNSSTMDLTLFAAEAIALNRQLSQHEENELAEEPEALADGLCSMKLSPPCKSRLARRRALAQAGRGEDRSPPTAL

| SMILES | IC50 [nM] |
| --- | --- |
| Cc1cc(Nc2ncnc3sc4c(c23)CC[C@H](C(=O)N(C)C)C4)c(=O)n2c1C(=O)NC2(C)C [Example 27, (7S)—N,N-Dimethyl-4-[(3,3,8-trimethyl-1,5-dioxo-1,2,3,5-tetrahydroimidazo[1,5-a]pyridin-6-yl)amino]-5,6,7,8-tetrahydro[1]benzothieno[2,3-d]pyrimidine-7-carboxamide] | 2 |
| Cc1cc(Nc2ncnc3sc4c(c23)CC[C@H](C(=O)N2CCC2)C4)c(=O)n2c1C(=O)NC2(C)C [Example 28, 6-{[(7S)-7-(Azetidin-1-ylcarbonyl)-5,6,7,8-tetrahydro[1]benzothieno[2,3-d]pyrimidin-4-yl]amino}-3,3,8-trimethyl-2,3-dihydroimidazo[1,5-a]pyridine-1,5-dione] | 1 |
| Cc1cc(Nc2ncnc3sc4c(c23)CC[C@H](C(=O)N2CC(C#N)C2)C4)c(=O)n2c1C(=O)NC2(C)C [Example 29, 1-({(7S)-4-[(3,3,8-Trimethyl-1,5-dioxo-1,2,3,5-tetrahydroimidazo[1,5-a]pyridin-6-yl)amino]-5,6,7,8-tetrahydro[1]benzothieno[2,3-d]pyrimidin-7-yl}carbonyl)azetidine-3-carbonitrile] | 1 |
| Cc1cc(Nc2ncnc3sc4c(c23)CC[C@H](C(=O)N2CC(N(C)C)C2)C4)c(=O)n2c1C(=O)NC2(C)C [Example 30, 6-{[(7S)-7-{[3-(Dimethylamino)azetidin-1-yl]carbonyl}-5,6,7,8-tetrahydro[1]benzothieno[2,3-d]pyrimidin-4-yl]amino}-3,3,8-trimethyl-2,3-dihydroimidazo[1,5-a]pyridine-1,5-dione] | 1.3 |
| Cc1cc(Nc2ncnc3sc4c(c23)CC[C@H](C(=O)N2CC[C@H](N(C)C)C2)C4)c(=O)n2c1C(=O)NC2(C)C [Example 31, 6-{[(7S)-7-{[(3S)-3-(Dimethylamino)pyrrolidin-1-yl]carbonyl}-5,6,7,8-tetrahydro[1]benzothieno[2,3-d]pyrimidin-4-yl]amino}-3,3,8-trimethyl-2,3-dihydroimidazo[1,5-a]pyridine-1,5-dione] | 0.9 |
| Cc1cc(Nc2ncnc3sc4c(c23)CC[C@H](C(=O)O)C4)c(=O)n2c1C(=O)NC21CCCC1 [Example 34, (7S)-4-[(8′-Methyl-1′,5′-dioxo-1′,5′-dihydro-2′H-spiro[cyclopentane-1,3′-imidazo[1,5-a]pyridin]-6′-yl)amino]-5,6,7,8-tetrahydro[1]benzothieno[2,3-d]pyrimidine-7-carboxylic acid] | 4.7 |
| Cc1cc(Nc2ncnc3sc4c(c23)CC[C@H](C(=O)N2C[C@H]3C[C@@H]2CO3)C4)c(=O)n2c1C(=O)NC21CCCC1 [Example 36, 8′-Methyl-6′-({(7S)-7-[(1R,4R)-2-oxa-5-azabicyclo[2.2.1]hept-5-ylcarbonyl]-5,6,7,8-tetrahydro[1]benzothieno[2,3-d]pyrimidin-4-yl}amino)-2′H-spiro[cyclopentane-1,3′-imidazo[1,5-a]pyridine]-1′,5′-dione] | 1.3 |
| Cc1cc(Nc2ncnc3sc4c(c23)CC[C@H](C(=O)N2CCC2)C4)c(=O)n2c1C(=O)NC21CCCC1 [Example 38, 6′-{[(7S)-7-(Azetidin-1-ylcarbonyl)-5,6,7,8-tetrahydro[1]benzothieno[2,3-d]pyrimidin-4-yl]amino}-8′-methyl-2′H-spiro[cyclopentane-1,3′-imidazo[1,5-a]pyridine]-1′,5′-dione] | 3.1 |

Molecules with a lower IC50, results first:

| IC50 [nM] | SMILES |
| --- | --- |
| 0.8 | Cc1cc(Nc2ncnc3sc4c(c23)CC[C@H](C(=O)N2C[C@H]3C[C@@H]2CO3)C4)c(=O)n2c1C(=O)NC2(C)C [Example 33, 3,3,8-Trimethyl-6-({(7S)-7-[(1R,4R)-2-oxa-5-azabicyclo[2.2.1]hept-5-ylcarbonyl]-5,6,7,8-tetrahydro[1]benzothieno[2,3-d]pyrimidin-4-yl}amino)-2,3-dihydroimidazo[1,5-a]pyridine-1,5-dione] |
| 0.7 | Cc1cc(Nc2ncnc3sc4c(c23)CC[C@H](C(=O)N2C[C@H]3C[C@@H]2CO3)C4)c(=O)n2c1C(=O)NC21CCC1 [Example 26, 8′-Methyl-6′-({(7S)-7-[(1R,4R)-2-oxa-5-azabicyclo[2.2.1]hept-5-ylcarbonyl]-5,6,7,8-tetrahydro[1]benzothieno[2,3-d]pyrimidin-4-yl}amino)-2′H-spiro[cyclobutane-1,3′-imidazo[1,5-a]pyridine]-1′,5′-dione] |
| 0.7 | Cc1cc(Nc2ncnc3sc4c(c23)CC[C@H](C(=O)N(C)C)C4)c(=O)n2c1C(=O)NC21CCCC1 [Example 37, (7S)—N,N-Dimethyl-4-[(8′-methyl-1′,5′-dioxo-1′,5′-dihydro-2′H-spiro[cyclopentane-1,3′-imidazo[1,5-a]pyridin]-6′-yl)amino]-5,6,7,8-tetrahydro[1]benzothieno[2,3-d]pyrimidine-7-carboxamide] |
| 0.6 | Cc1cc(Nc2ncnc3sc4c(c23)CC[C@H](C(=O)N(C)C)C4)c(=O)n2c1C(=O)NC21CCC1 [Example 20, (7S)—N,N-Dimethyl-4-[(8′-methyl-1′,5′-dioxo-1′,5′-dihydro-2′H-spiro[cyclobutane-1,3′-imidazo[1,5-a]pyridin]-6′-yl)amino]-5,6,7,8-tetrahydro[1]benzothieno[2,3-d]pyrimidine-7-carboxamide] |
| 0.6 | Cc1cc(Nc2ncnc3sc4c(c23)CC[C@H](C(=O)N2CCC2)C4)c(=O)n2c1C(=O)NC21CCC1 [Example 21, 6′-{[(7S)-7-(Azetidin-1-ylcarbonyl)-5,6,7,8-tetrahydro[1]benzothieno[2,3-d]pyrimidin-4-yl]amino}-8′-methyl-2′H-spiro[cyclobutane-1,3′-imidazo[1,5-a]pyridine]-1′,5′-dione] |
| 0.5 | Cc1cc(Nc2ncnc3sc4c(c23)CC[C@H](C(=O)N2CC(C#N)C2)C4)c(=O)n2c1C(=O)NC21CCC1 [Example 22, 1-({(7S)-4-[(8′-Methyl-1′,5′-dioxo-1′,5′-dihydro-2′H-spiro[cyclobutane-1,3′-imidazo[1,5-a]pyridin]-6′-yl)amino]-5,6,7,8-tetrahydro[1]benzothieno[2,3-d]pyrimidin-7-yl}carbonyl)azetidine-3-carbonitrile] |
| 0.5 | Cc1cc(Nc2ncnc3sc4c(c23)CC[C@H](C(=O)N2CCN(C)[C@H](C)C2)C4)c(=O)n2c1C(=O)NC2(C)C [Example 32, 6-{[(7S)-7-{[(3R)-3,4-Dimethylpiperazin-1-yl]carbonyl}-5,6,7,8-tetrahydro[1]benzothieno[2,3-d]pyrimidin-4-yl]amino}-3,3,8-trimethyl-2,3-dihydroimidazo[1,5-a]pyridine-1,5-dione] |
| 0.4 | Cc1cc(Nc2ncnc3sc4c(c23)CC[C@H](C(=O)N2CC(N(C)C)C2)C4)c(=O)n2c1C(=O)NC21CCC1 [Example 23, 6′-{[(7S)-7-{[3-(Dimethylamino)azetidin-1-yl]carbonyl}-5,6,7,8-tetrahydro[1]benzothieno[2,3-d]pyrimidin-4-yl]amino}-8′-methyl-2′H-spiro[cyclobutane-1,3′-imidazo[1,5-a]pyridine]-1′,5′-dione] |
| 0.4 | Cc1cc(Nc2ncnc3sc4c(c23)CC[C@H](C(=O)N2CCN(C)[C@H](C)C2)C4)c(=O)n2c1C(=O)NC21CCC1 [Example 25, 6′-{[(7S)-7-{[(3R)-3,4-Dimethylpiperazin-1-yl]carbonyl}-5,6,7,8-tetrahydro[1]benzothieno[2,3-d]pyrimidin-4-yl]amino}-8′-methyl-2′H-spiro[cyclobutane-1,3′-imidazo[1,5-a]pyridine]-1′,5′-dione] |
| 0.4 | Cc1cc(Nc2ncnc3sc4c(c23)CC[C@H](C(=O)N2CCN(C)[C@H](C)C2)C4)c(=O)n2c1C(=O)NC21CCCC1 [Example 35, 6′-{[(7S)-7-{[(3R)-3,4-Dimethylpiperazin-1-yl]carbonyl}-5,6,7,8-tetrahydro[1]benzothieno[2,3-d]pyrimidin-4-yl]amino}-8′-methyl-2′H-spiro[cyclopentane-1,3′-imidazo[1,5-a]pyridine]-1′,5′-dione] |
| 0.2 | Cc1cc(Nc2ncnc3sc4c(c23)CC[C@H](C(=O)N2CC[C@H](N(C)C)C2)C4)c(=O)n2c1C(=O)NC21CCC1 [Example 24, 6′-{[(7S)-7-{[(3S)-3-(Dimethylamino)pyrrolidin-1-yl]carbonyl}-5,6,7,8-tetrahydro[1]benzothieno[2,3-d]pyrimidin-4-yl]amino}-8′-methyl-2′H-spiro[cyclobutane-1,3′-imidazo[1,5-a]pyridine]-1′,5′-dione] |
